We go through seven compounds from PubChem BioAssay (NCI).

Some test systems named below: LXFL 529 NSCLC; DMS 114 small cell lung; M19-MEL melanoma; DMS 273 small cell lung; HOP-18 NSCLC; RXF-631 renal.
Holding throughout (test): NCI anticancer screen, dose series, 48 h

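In this assay, cells in 96-well plates receive the compound at five concentrations for 48 hours. Endpoints are linearly interpolated between the surrounding concentrations. TGI denotes the concentration required for complete inhibition of growth.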

In the case of `CCOc1ncnc2ccc(Cl)c(I)c12`, the TGI in the assay with LXFL 529 NSCLC, in the assay on DMS 114 small cell lung, with M19-MEL melanoma and with DMS 273 small cell lung was above 100 µM each time.
As for `COc1cc(OC)cc(C(=O)Cc2c(C(=O)c3ccccc3)c3ccccc3n2C(=O)c2ccccc2)c1`, the TGI in the assay on LXFL 529 NSCLC, with DMS 114 small cell lung, in the assay with M19-MEL melanoma and in the assay with DMS 273 small cell lung was above 100 µM each time.
In the case of `COc1ccc(NS(=O)(=O)c2ccc(N=C3C=C(Nc4ccc(S(=O)(=O)Nc5ccc(OC)nn5)cc4)C(=O)c4ccccc43)cc2)nn1`, the TGI with LXFL 529 NSCLC was 57.9 µM; in the assay with DMS 114 small cell lung, 66.7 µM; in the assay with M19-MEL melanoma, 30.6 µM; with DMS 273 small cell lung, 28.4 µM; in the assay on HOP-18 NSCLC it was 29.7 µM.
For `CCCCC(N)CSSCC(N)CCCC` (centres undefined), the TGI in the assay on LXFL 529 NSCLC was 31.2 µM; in the assay with DMS 114 small cell lung, 37.1 µM; in the assay with M19-MEL melanoma it was 56.9 µM; in the assay on DMS 273 small cell lung, 45.6 µM; with HOP-18 NSCLC it was above 100 µM.
Turning to `Cn1cc2ccccc2c1-c1nc(F)nc(Nc2ccc(N)cc2)n1`, the TGI worked out at 30.9 µM in the assay with LXFL 529 NSCLC; 38.1 µM in the assay on DMS 114 small cell lung; 38.2 µM in the assay on RXF-631 renal; 25.2 µM in the assay with M19-MEL melanoma; 25.6 µM with DMS 273 small cell lung.
As to `CC(C)=CCC/C(C)=C/CC/C(C)=C/C1CCC(=O)C1(C)C` (centres undefined), the TGI was 31.1 µM in the assay with LXFL 529 NSCLC; 28.2 µM in the assay on DMS 114 small cell lung; above 100 µM with RXF-631 renal; 38 µM with M19-MEL melanoma; 63.1 µM with HOP-18 NSCLC.
`COc1ccc(-c2nc(SC)n(C3OC(COC(C)=O)C(OC(C)=O)C(OC(C)=O)C3OC(C)=O)c(=O)c2C#N)cc1` (centres undefined) showed a TGI with LXFL 529 NSCLC above 100 µM.
